Measurements as given in patent publication US5585492A, “LTA4 Hydrolase inhibitors” (priority 1994, dated 1996).
Structures can show the parent of a compound that is named as a salt. Where two headings read alike, the source gives them in different places.

What was measured:
[1] = tested on: LTB4 production in mouse blood; experiment: Murine Ex Vivo LTB4 Inhibition, calcium ionophore stimulated mouse blood after oral gavage; format: in vivo
Procedure: Leukotriene A4 hydrolass inhibitor compounds of the present invention were diluted to a predetermined concentration in phosphate buffered saline containing 2% DMSO and 1% Tween 80. The compounds were administered by oral gavage to adult male outbred mice weighing approximately 20-30 gm at a dose of 10 mg/kg body weight. (Compounds given at a dose of 50 mg/kg body weight are designtated in following Table by the symbol, *.) Sixty (60) minutes after administration of an LTA4 inhibitor compound of the invention, blood was collected (into heparin-containing tubes) from the retroorbital sinus. […] The mixture was incubated for 10 minutes at 37° C. in a humidified incubator. The reaction was terminated by centrifugation (833 g, 10 minutes at 4° C.). Supernatants were analyzed for LTB4 and thromboxane by commercially available enzyme-linked immunoassays [Caymen Chemical Co., Ann Arbor, Mich.] in accordance with the manufacturer's instructions. The percent inhibition was determined by comparison to animals treated identically except that the solution admininstered by oral gavage was devoid of inhibitor compound.

[2] = target: T1, recombinant human LTA4 hydrolase (Homo sapiens, UniProt P09960); experiment: Recombinant Human LTA4 Hydrolase Assay for LTA4 Hydrolase Inhibitor Activity (LTB4 by enzyme-linked immunoassay); format: biochemical; details: read-out: Recombinant Human LTA4 Hydrolase Assay IC50 LTA4H
T1 construct: made in house; host or cells: Spodoptera frugiperda Sf-9 cells, baculovirus (AcNPV) expression vector
T1 sequence (P09960 1-611): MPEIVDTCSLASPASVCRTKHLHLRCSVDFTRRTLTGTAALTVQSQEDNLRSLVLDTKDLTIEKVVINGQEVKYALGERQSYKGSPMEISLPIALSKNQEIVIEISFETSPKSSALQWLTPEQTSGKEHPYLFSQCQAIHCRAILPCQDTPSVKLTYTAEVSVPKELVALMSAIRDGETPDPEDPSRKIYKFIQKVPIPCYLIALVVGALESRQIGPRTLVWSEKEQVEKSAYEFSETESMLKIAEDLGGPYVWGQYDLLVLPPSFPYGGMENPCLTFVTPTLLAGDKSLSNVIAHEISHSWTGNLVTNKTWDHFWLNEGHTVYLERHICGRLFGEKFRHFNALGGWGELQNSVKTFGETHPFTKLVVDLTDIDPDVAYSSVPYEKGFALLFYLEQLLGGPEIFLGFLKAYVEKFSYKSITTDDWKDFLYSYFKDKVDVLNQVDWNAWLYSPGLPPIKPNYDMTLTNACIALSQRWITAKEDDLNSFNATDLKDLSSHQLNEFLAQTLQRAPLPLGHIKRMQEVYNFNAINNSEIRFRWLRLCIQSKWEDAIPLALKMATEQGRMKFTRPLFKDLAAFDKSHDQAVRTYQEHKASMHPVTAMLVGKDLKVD
Procedure: Compounds of the present invention were tested for LTA4 hydrolase inhibitor activity against recombinant human LTA4 hydrolase (rhLTA4 H). […] Briefly, LTA4 hydrolase encoding DNA was amplified by polymerase chain reaction using a pair of oligonucleotide primers based on the nucleotide sequence from the 5'-end, and the complement of the 3'-end, of the coding region of the LTA4 hydrolase gene, the nucleotide sequence of which gene is known. […] A λgtll human placental cDNA library (Clonetech, Palo Alto, Calif.) provided the nucleic acid template.
One or more predetermined amounts of a compound of the invention were incubated in assay buffer (0.1M potassium phosphate, 5 mg/ml fatty acid free BSA, 10% DMSO, pH 7.4) for 10 minutes at room temperature with 250 ng of recombinant hLT4 H to allow binding, if any, between the enzyme and inhibitor. The stock enzyme solution was 1 mg/ml LTA4 hydrolase, 50 mM Tris, pH 8.0, 150 mM NaCl, 2.5 mM beta-mercaptoethanol, 50% glycerol. […] LTA4 (i.e., substrate) was prepared from the methyl ester of LTA4 (Biomol, Inc., Plymouth Meeting, Pa.) by treating the methyl ester with 30 molar equivalents of LiOH at room temperature for 18 hours. The LTA4 substrate in its free acid form was kept frozen at -80° C. until needed. […] Each reaction was carried out at room temperature for 10 minutes. The reaction was stopped by diluting 25 μl of the reaction mixture with 500 μl of the assay buffer without DMSO. LTB4 was quantified in the diluted sample by a commercially available enzyme-linked immunoassay [Caymen Chemical Co., Ann Arbor, Mich.] using the method recommended in the manufacturer's instructions and compared to the amount of LTB4 produced in a negative control (i.e., essentially identical conditions except without addition of an inhibitor compound). The IC50 was routinely calculated from the data produced.

[3] = tested on: LTB4 production in human blood; experiment: Inhibition of Calcium Ionophore-Induced LTB4 Production in Human Blood (HWB); format: cell-based; details: Homo sapiens, read-out: Inhibition of Calcium Ionophore-Induced LTB4 Production in Human Blood IC50 HWB
[4] = human whole blood, A23187 20 mcg/ml

Row | Compound | IC50 [2] | Murine Ex Vivo LTB4 Inhibition % I LTB4 at 1 hour after administration of 10 mg/kg ([1]; oral gavage, 10 mg/kg, 1 hour) | IC50 [3, 4] | IC50 [3] | Murine Ex Vivo LTB4 Inhibition % I LTB4 at 1 hour after administration of 50 mg/kg (*) ([1]; in vivo, po) | Murine Ex Vivo LTB4 Inhibition % I LTB4 at 1 hour after administration of 10 mg/kg ([1]; in vivo, po)
1 | CCOC(=O)CCNCCCCOc1ccc(Cc2ccccc2)cc1 [Example 272] | 7 nM | 97% | 76 nM | – | – | –
2 | c1ccc(Cc2ccc(OCCN3CCCC3)cc2)cc1 [Example 45] | 26 nM | 35% | – | 116 nM | – | –
3 | c1ccc(Oc2ccc(OCCN3CCCC3)cc2)cc1 [Example 44, 1-[2-(4-phenoxyphenoxy)ethyl]pyrrolidine] | 30 nM | 25% | – | – | – | –
4 | CCOC(=O)C1CCN(CCOc2ccc(Cc3ccccc3)s2)CC1 [Example 370] | – | 96% | 680 nM | – | – | –
5 | c1ccc(Cc2ccc(OCCN3CCCC3)nc2)cc1 [Example 112] | 7 nM | – | – | – | 82% | –
6 | COC(=O)C1CC2CCC(C1)N2CCOc1ccc(Cc2ccccc2)cc1 (stereo not drawn) [Example 278] | 22 nM | 95% | – | 247 nM | – | –
7 | FC(F)(c1ccccc1)c1ccc(OCCN2CCCC2)cc1 [Example 67] | 11 nM | 0% | – | – | – | –
8 | NC(=O)N1CCN(CCOc2ccc(Cc3ccccc3)cc2)CC1 [Example 459] | 1110 nM | 44% | 2400 nM | – | – | –
9 | CCOC(=O)CNCCCCCOc1ccc(Cc2ccccc2)cc1 [Example 321] | 250 nM | 87% | 421 nM | – | – | –
10 | c1ccc(Cc2ccc(OCCn3cnc4cnccc43)cc2)cc1 [Example 340B] | – | 64% | 330 nM | – | – | –
11 | c1ccc(Cc2ccc(OCCn3cnc4ncncc43)cc2)cc1 [Example 357A] | – | 57% | – | – | – | –
12 | [O-][n+]1ccc2c(c1)ncn2CCOc1ccc(Cc2ccccc2)cc1 [Example 365] | – | 72% | – | – | – | –
13 | COC(=O)CCN(C)CCCOc1ccc(Cc2ccccc2)s1 [Example 375] | – | 67% | 240 nM | – | – | –
14 | Fc1cc(OCCN2CCCC2)ccc1Cc1ccccc1 [Example 116] | 53 nM | 18% | 1090 nM | – | – | –
15 | c1cncc(Cc2ccc(OCCN3CCCC3)cc2)c1 [Example 125] | 87 nM | 46% | – | – | – | –
16 | CCOC(=O)C1CCN(CCOc2ccc(Cc3ccccc3)cc2)CC1 [Example 245] | – | 97% | 147 nM | – | – | –
17 | COC(=O)C1CC2CCC(C1)N2CC1Cc2cc(Cc3ccccc3)ccc2O1 (stereo not drawn) [Example 283] | – | 90% | – | 90 nM | – | –
18 | c1ccc(Cc2ccc3c(c2)CC(Cn2cnc4cnccc42)O3)cc1 (stereo not drawn) [Example 358B] | – | 33% | 640 nM | – | – | –
19 | c1csc(Cc2ccc(OCCN3CCCC3)cc2)n1 [Example 121] | 69 nM | 48% | – | – | – | –
20 | c1ccc(Cc2ccc3c(c2)CC(Cn2ccc4ncnc-4c2)O3)cc1 (stereo not drawn) [Example 358C] | – | 13% | 590 nM | – | – | –
21 | c1ccc(Cc2cnc(OCCN3CCCC3)s2)cc1 [Example 76] | 2900 nM | – | 3500 nM | – | – | –
22 | Clc1cccc(COc2ccc(OCCN3CCCC3)cc2)c1 [Example 206] | – | 0% | 1650 nM | – | – | –
23 | c1nc(Cc2ccc(OCCN3CCCC3)cc2)cs1 [Example 49] | 190 nM | 46% | – | – | – | –
24 | CC1CCCC(C)N1CCOc1ccc(Cc2ccccc2)cc1 (stereo not drawn) [Example 402] | – | 58% | – | – | – | –
25 | O=C(O)C1CCN(CCOc2ccc(Cc3ccccc3)cc2)CC1 [Example 429] | – | 80% | 288 nM | – | – | –
26 | c1ncc(Cc2ccc(OCCN3CCCC3)cc2)s1 [Example 122] | 77 nM | 57% | – | – | – | –
27 | Clc1cc(Cc2ccccc2)ccc1OCCN1CCCC1 [Example 113] | 1230 nM | – | 2010 nM | – | – | –
28 | COC(=O)[C@@H]1CCCN1CCOc1ccc(Cc2ccccc2)cc1 [Example 225, Methyl 1-[2-[4-(phenylmethyl)phenoxy]ethyl]-2S-pyrrolidine-2-carboxylate, monohydrochloride, hydrate] | 450 nM | – | 1860 nM | – | – | –
29 | COC(=O)CCN(C)CCCOc1ccc(Cc2ccsc2)cc1 [Example 330] | – | 95% | 90 nM | – | – | –

Further lines, with some results ahead:

Row | IC50 [2] | Compound | Murine Ex Vivo LTB4 Inhibition % I LTB4 at 1 hour after administration of 10 mg/kg ([1]; oral gavage, 10 mg/kg, 1 hour) | IC50 [3, 4] | IC50 [3] | Murine Ex Vivo LTB4 Inhibition % I LTB4 at 1 hour after administration of 50 mg/kg (*) ([1]; in vivo, po) | Murine Ex Vivo LTB4 Inhibition % I LTB4 at 1 hour after administration of 10 mg/kg ([1]; in vivo, po)
30 | 132 nM | NC(=O)C1CCN(CCOc2ccc(Cc3ccccc3)cc2)CC1 [Example 242] | 95% | 608 nM | – | – | –
31 | 20 nM | NC1CCN(CCOc2ccc(Cc3ccccc3)cc2)C1 (stereo not drawn) [Example 452] | – | 290 nM | – | – | –
32 | 16 nM | COC(=O)CCN(C)CCCOc1ccc(Cc2cccs2)cc1 [Example 331] | – | 95 nM | – | – | –
33 | 210 nM | CC(=O)NC1CCN(CCOc2ccc(Cc3ccccc3)cc2)C1 (stereo not drawn) [Example 227] | – | 420 nM | – | – | –
34 | 15 nM | COC(=O)CC1CC2CC1CN2CCOc1ccc(Cc2ccccc2)cc1 (stereo not drawn) [Example 304] | – | – | – | – | 80%
35 | 240 nM | c1ccc(Cc2ccc(OCCN3CCC(c4nnn[nH]4)CC3)cc2)cc1 [Example 450] | 91% | – | – | – | –
36 | 1320 nM | Nc1ccc2ncn(CCOc3ccc(Cc4ccccc4)cc3)c2c1 [Example 362B] | – | 4580 nM | – | – | –
37 | 70 nM | COc1ccc(Cc2ccc(OCCN3CCCC3)cc2)cc1 [Example 128] | – | 890 nM | – | – | –
